Results on six compounds are retold here after patent publication US20230203098A1, “HUMAN TRANSFERRIN RECEPTOR BINDING PEPTIDE” (priority 2020, published 2023).

Molecules are shown by their SMILES. Where a SMILES comes first, the peptide text is derived from it. Bridges are numbered along the chain shown (N, C = ends). [ ]: non-standard residue; d: D form. NMePhe(3-Cl) = CN[C@@H](Cc1cccc(Cl)c1)C(=O)O; NMeW = CN[C@@H](Cc1c[nH]c2ccccc12)C(=O)O; NMeY = CN[C@@H](Cc1ccc(O)cc1)C(=O)O; PEG4 = NCCOCCOCCOCCOCCC(=O)O; Nle = CCCC[C@H](N)C(=O)O; Nva = CCC[C@H](N)C(=O)O; Abu = CC[C@H](N)C(=O)O

transferrin receptor (hTfR), sequence (P02786 whole entry): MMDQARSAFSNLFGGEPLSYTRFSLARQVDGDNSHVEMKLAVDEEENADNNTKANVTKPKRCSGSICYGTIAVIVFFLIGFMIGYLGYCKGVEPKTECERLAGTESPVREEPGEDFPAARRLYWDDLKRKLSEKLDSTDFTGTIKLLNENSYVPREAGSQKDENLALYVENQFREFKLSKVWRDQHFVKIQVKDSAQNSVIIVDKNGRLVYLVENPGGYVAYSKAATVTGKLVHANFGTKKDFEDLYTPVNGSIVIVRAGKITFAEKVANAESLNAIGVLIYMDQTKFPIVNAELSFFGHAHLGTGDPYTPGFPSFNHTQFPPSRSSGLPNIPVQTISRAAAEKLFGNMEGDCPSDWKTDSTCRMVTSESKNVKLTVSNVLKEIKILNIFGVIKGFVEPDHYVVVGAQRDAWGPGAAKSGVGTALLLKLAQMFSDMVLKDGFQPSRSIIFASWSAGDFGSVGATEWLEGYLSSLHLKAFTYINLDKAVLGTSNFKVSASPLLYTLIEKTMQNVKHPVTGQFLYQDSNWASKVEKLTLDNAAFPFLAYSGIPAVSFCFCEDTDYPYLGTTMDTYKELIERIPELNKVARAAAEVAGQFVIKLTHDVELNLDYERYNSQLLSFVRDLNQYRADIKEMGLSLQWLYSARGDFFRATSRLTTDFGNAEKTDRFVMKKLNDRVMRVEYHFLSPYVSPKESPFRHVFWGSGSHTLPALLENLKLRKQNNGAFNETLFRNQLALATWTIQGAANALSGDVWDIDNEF

The assay addresses transferrin receptor (hTfR) (Homo sapiens, UniProt P02786). Description: Intermolecular interaction evaluation test between transferrin receptor (hTfR) and peptide by surface plasmon resonance (SPR). It counts as binding. To be noted: surface plasmon resonance, hTfR; read-out: KD value for hTfR by SPR (class symbol). The method, boiled down: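 Receptor was Ni-captured and EDC/NHS-fixed on an NTA chip; running buffer HEPES pH 8.0 with NaCl, Tween 20, BSA and 1.0% DMSO.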
On the technique in general: Surface plasmon resonance follows binding to a sensor surface in real time, without labels.
By Kd is commonly meant the constant that tells how readily two partners part at equilibrium. Consider `CC[C@H](C)[C@@H]1NC(=O)[C@H](Cc2ccc(OC)cc2)NC(=O)[C@H](Cc2ccc(O)cc2)NC(=O)[C@H](CC(N)=O)NC(=O)[C@H](Cc2c[nH]c3ccccc23)N(C)C(=O)[C@H](C(C)C)NC(=O)[C@H](Cc2cccc(Cl)c2)N(C)C(=O)[C@H](C(C)C)NC(=O)[C@H](C)NC(=O)CSC[C@@H](C(=O)N[C@H](CCC(=O)O)C(N)=O)NC(=O)[C@H](Cc2ccc(O)cc2)N(C)C(=O)[C@H](Cc2ccccc2)NC(=O)[C@@H](CCCNC(=N)N)NC(=O)C(C)(C)NC(=O)[C@H]([C@@H](C)CC)NC1=O` [compound 355], for which the Kd fell in the range of 100 to 1000 nM.
Take `CC[C@H](C)[C@@H]1NC(=O)[C@H](Cc2ccc(OC)cc2)NC(=O)[C@H](Cc2ccc(O)cc2)NC(=O)[C@H](CC(N)=O)NC(=O)[C@H](Cc2c[nH]c3ccccc23)N(C)C(=O)[C@H](C(C)C)NC(=O)[C@H](Cc2cccc(Cl)c2)N(C)C(=O)[C@H](C(C)C)NC(=O)[C@H](C)NC(=O)CSC[C@@H](C(=O)N[C@H](CCC(=O)O)C(=O)N[C@H](CCC(=O)O)C(N)=O)NC(=O)[C@H](Cc2ccc(O)cc2)N(C)C(=O)[C@H](Cc2ccccc2)NC(=O)[C@@H](CCCNC(=N)N)NC(=O)C(C)(C)NC(=O)[C@H]([C@@H](C)CC)NC1=O` [compound 356]: the Kd lay within 1 to 100 nM.
On to `CC[C@H](C)[C@@H]1NC(=O)[C@H](Cc2ccc(OC)cc2)NC(=O)[C@H](Cc2ccc(O)cc2)NC(=O)[C@H](CC(N)=O)NC(=O)[C@H](Cc2c[nH]c3ccccc23)N(C)C(=O)[C@H](C(C)C)NC(=O)[C@H](Cc2cccc(Cl)c2)N(C)C(=O)[C@H](C(C)C)NC(=O)[C@H](C)NC(=O)CSC[C@@H](C(=O)N[C@H](CCC(=O)O)C(=O)N(C)CC(=O)N[C@H](CCC(=O)O)C(N)=O)NC(=O)[C@H](Cc2ccc(O)cc2)N(C)C(=O)[C@H](Cc2ccccc2)NC(=O)[C@@H](CCCNC(=N)N)NC(=O)C(C)(C)NC(=O)[C@H]([C@@H](C)CC)NC1=O` [compound 357], for which the Kd lay in the range of 1 to 100 nM.
Then `CC[C@@H]1NC(=O)[C@H]([C@@H](C)CC)NC(=O)[C@H]([C@@H](C)CC)NC(=O)[C@H](Cc2ccc(OC)cc2)NC(=O)[C@H](Cc2ccc(O)cc2)NC(=O)[C@H](CC(N)=O)NC(=O)[C@H](Cc2c[nH]c3ccccc23)N(C)C(=O)[C@H](C(C)C)NC(=O)[C@H](Cc2cccc(Cl)c2)N(C)C(=O)[C@H](C(C)C)NC(=O)[C@H](C)NC(=O)CSC[C@@H](C(=O)NCCOCCOCCOCCOCCC(N)=O)NC(=O)[C@H](Cc2ccc(O)cc2)N(C)C(=O)[C@H](Cc2ccccc2)NC(=O)[C@@H](CCCNC(=N)N)NC1=O` [compound 359] ({CH2CO}-AV[NMePhe(3-Cl)]V[NMeW]NYY(Me)II[Abu][dR]F[NMeY]C[PEG4]-NH2; thioether N-15), with 1 to 100 nM.
Consider `CCC[C@@H]1NC(=O)[C@H]([C@@H](C)CC)NC(=O)[C@H]([C@@H](C)CC)NC(=O)[C@H](Cc2ccc(OC)cc2)NC(=O)[C@H](Cc2ccc(O)cc2)NC(=O)[C@H](CC(N)=O)NC(=O)[C@H](Cc2c[nH]c3ccccc23)N(C)C(=O)[C@H](C(C)C)NC(=O)[C@H](Cc2cccc(Cl)c2)N(C)C(=O)[C@H](C(C)C)NC(=O)[C@H](C)NC(=O)CSC[C@@H](C(=O)NCCOCCOCCOCCOCCC(N)=O)NC(=O)[C@H](Cc2ccc(O)cc2)N(C)C(=O)[C@H](Cc2ccccc2)NC(=O)[C@@H](CCCNC(=N)N)NC1=O` [compound 360] ({CH2CO}-AV[NMePhe(3-Cl)]V[NMeW]NYY(Me)II[Nva][dR]F[NMeY]C[PEG4]-NH2; thioether N-15), for which the Kd was 1 to 100 nM.
`CCCC[C@@H]1NC(=O)[C@H]([C@@H](C)CC)NC(=O)[C@H]([C@@H](C)CC)NC(=O)[C@H](Cc2ccc(OC)cc2)NC(=O)[C@H](Cc2ccc(O)cc2)NC(=O)[C@H](CC(N)=O)NC(=O)[C@H](Cc2c[nH]c3ccccc23)N(C)C(=O)[C@H](C(C)C)NC(=O)[C@H](Cc2cccc(Cl)c2)N(C)C(=O)[C@H](C(C)C)NC(=O)[C@H](C)NC(=O)CSC[C@@H](C(=O)NCCOCCOCCOCCOCCC(N)=O)NC(=O)[C@H](Cc2ccc(O)cc2)N(C)C(=O)[C@H](Cc2ccccc2)NC(=O)[C@@H](CCCNC(=N)N)NC1=O` [compound 361] ({CH2CO}-AV[NMePhe(3-Cl)]V[NMeW]NYY(Me)II[Nle][dR]F[NMeY]C[PEG4]-NH2; thioether N-15): the Kd lay in the range of 1 to 100 nM.
